Entries after “also recorded” stand apart in the source; their conditions may differ.
How the values were obtained:
[1] = test system: wild-type (wt) SARS-CoV-2; test: Plaque assay of released viral progeny from pre-treated Vero E6 cells; format: cell-based; details: 6 h pre-treatment, range of concentrations, MOI 0.01, 48 hours post-infection
SARS-CoV-2-GFP = format: cell-based
SARS-CoV = details: described previously (ref. 70); cited from earlier work
[2] = test system: SARS-CoV-2 (strain MUC-IMB-1); test: Viral nucleoprotein (NP) western blot in A549-ACE2 cells; format: cell-based
[3] = test system: SARS-CoV (strain Frankfurt 1); format: cell-based; details: A549-ACE2 cells, 6 h pre-treatment, 24 hours infection
[4] = test system: SARS-CoV-2 (strain MUC-IMB-1); test: NP immunofluorescence in primary normal human bronchial cells (NHBE) ex vivo; format: cell-based; details: 6 h pre-treatment, MOI 3, 24 hours post-infection
[5] = test system: SARS-CoV-2 (strain MUC-IMB-1); format: cell-based
IP-10 = test: Secreted IP10 by ELISA in NHBEs; format: cell-based, human
NHBE cells = format: cell-based, human
IL6 = format: cell-based, human; details: NHBEs, 0.75 μM, mock-, SARS-CoV or SARS-CoV-2 infected, 24 h post-infection

## CNc1ccc(/C=C/c2c(F)cccc2Cl)cc1 [FIDAS-5, (E)-4-(2-chloro-6-fluorostyryl)-N-methylaniline]
[1]
  released viral progeny in the supernatant by plaque assay: dose-dependent suppression of the wt SARS-CoV-2
SARS-CoV-2-GFP
  antiviral activity of co-treatment with DZNep: synergistic antiviral activity
  antiviral activity: growth of SARS-CoV-2-GFP reporter virus: have antiviral activity against SARS-CoV-2

## Nc1nccc2c1ncn2[C@@H]1C=C(CO)[C@@H](O)[C@H]1O [DZNep, 3-deazaneplanocin A]
SARS-CoV
  antiviral activity against SARS-CoV in an in vivo infection model: did not show antiviral activity against SARS-CoV
[2]
  virus nucleoprotein (NP) expression by western blot: potent antiviral effect against SARS-CoV-2
[3]
  antiviral effect against SARS-CoV, expression of viral protein N: do not observe an antiviral effect
[4]
  inhibition of SARS-CoV-2 in primary human ex-vivo infection model: potent inhibitor of SARS-CoV-2
[1]
  released viral progeny in the supernatant by plaque assay: dose-dependent suppression of the wt SARS-CoV-2
[5]
  expression of viral proteins (SARS-CoV-2) by mass spectrometry: clear reduction
[5]; A549-ACE2 (0.75 μM, 24 h) and NHBEs (1.5 μM, 36 h)
  abundance changes of NP and spike (S), SARS-CoV-2: DZNep-dependent inhibition of SARS-CoV-2
IP-10
  IP-10 secretion by ELISA: IP-10 secretion was enhanced
NHBE cells
  abundance of innate immunity related factors (e.g. IL1RN, C3 and TNFAIP3/A20): DZNep-dependent changes in abundance
  factors counteracting fibrotic processes (e.g. ELAFIN, SLPI and ECM1): up-regulation of factors counteracting fibrotic processes
  factors of extrinsic coagulation cascade (e.g. F3 and TFPI2) and plasminogen activation system (e.g. PAI1, PLAT, PLAU): reduction of factors of extrinsic coagulation cascade
  pulmonary fibrosis biomarkers (e.g. COL4A1, MMP14 and SERPINE1): reduction of pulmonary fibrosis biomarkers
SARS-CoV-2-GFP
  antiviral activity: growth of SARS-CoV-2-GFP reporter virus: have antiviral activity against SARS-CoV-2; also recorded: particularly strong antiviral efficacy
SARS-CoV-2-GFP; STAT1 KO vs NTC A549-ACE2 cells, 6 h pre-treatment with DZNep and/or interferon alpha
  role of STAT1 dependent interferon response in SARS-CoV-2 inhibition by the compound: does not play a major role in SARS-CoV-2 inhibition in vitro
IL6
  IL6 secretion/expression by ELISA: significantly reduced IL6 expression in all tested conditions

## CNC(=O)[C@@H](NC(=O)[C@H](CC(C)C)[C@H](O)C(=O)NO)C(C)(C)C [marimastat]
SARS-CoV-2-GFP
  influence of DZNep co-treatment on the antiviral efficacy of the compound: does not negatively influence the antiviral efficacy

## Nc1ncnc2c1ncn2C[C@@H](O)[C@@H](O)C(=O)O [DER, D-eritadenine]
SARS-CoV-2-GFP
  antiviral activity: growth of SARS-CoV-2-GFP reporter virus: have antiviral activity against SARS-CoV-2

## CCN(CCO)CCCC(C)Nc1ccnc2cc(Cl)ccc12 (stereo not drawn) [Hydroxychloroquine]
SARS-CoV-2-GFP
  influence of DZNep co-treatment on the antiviral efficacy of the compound: does not negatively influence the antiviral efficacy

## CC(C)NC[C@@H](C(=O)N1CCN(c2ncnc3c2[C@H](C)C[C@H]3O)CC1)c1ccc(Cl)cc1 [ipatasertib]
SARS-CoV-2-GFP
  influence of DZNep co-treatment on the antiviral efficacy of the compound: does not negatively influence the antiviral efficacy

## NC(CCSCCCCC(=O)O)C(=O)O (racemic) [CBHcy, S-(4-Carboxybutyl)-D,L-homocysteine]
[1]
  released viral progeny in the supernatant by plaque assay: dose-dependent suppression of the wt SARS-CoV-2
SARS-CoV-2-GFP
  antiviral activity: growth of SARS-CoV-2-GFP reporter virus: have antiviral activity against SARS-CoV-2

## CN(C)CCc1nnc2cc(-c3ccccc3)c3cc(Cl)ccc3n12 [PF-9366, 2-(7-Chloro-5-phenyl-[1,2,4]triazolo[4,3-a]quinolin-1-yl)-N,N-dimethylethan-1-amine]
SARS-CoV-2-GFP
  antiviral activity: growth of SARS-CoV-2-GFP reporter virus: have antiviral activity against SARS-CoV-2

## Cc1nc2ccc(-c3c(Nc4ccccn4)[nH]c4c(-c5ccccc5)c(-c5ccccc5)nn4c3=O)cc2s1 [MAT2A inhibitor 1]
SARS-CoV-2-GFP
  antiviral activity: growth of SARS-CoV-2-GFP reporter virus: have antiviral activity against SARS-CoV-2

## IFN-α
SARS-CoV-2-GFP
  synergy of combination with DZNep (combination index, CI): strong synergism

— patent US20240075017A1 (priority 2021, published 2024)
